Results taken from patent publication US20070203109A1, “Compounds And Compositions For Treatment Of Cancer” (priority 2004, published 2007).
“Also recorded” adds a separate entry of the source. Read-outs that look alike come from different tables or passages of the source.

Columns and labels:
skin biopsy lesions = test: Comet-X assay on skin biopsy lesions; assay type: in vivo, human; details: highest cohort treated
[1] = test system: DNA of peripheral blood lymphocytes; test: Comet-X assay of patients' peripheral blood lymphocytes in the Phase I trial; assay type: in vivo, human
From the text: A modified version of the single cell gel electrophoresis comet assay, the Comet-X, specifically detects DNA cross-linking in individual cells and has been validated for clinical trial use. 9 patients have been treated with RH-1 and PMBCs (peripheral blood lymphocytes) isolated from pre-infusion and post infusion time points on both day 1 and day 5 of treatment were subjected to Comet-X assay (FIG. 2). From the data obtained, accumulative DNA damage appears to be occurring in PBMC's over the 5 day infusion period leading to significant DNA cross linking (30%) by day 5 (FIG. 3). Other PD (pharmacodynamic) assays used in the trial include assessment of DTD levels and activity and RFLP genotyping of the NQO1 gene.
(§1) The Comet assay is a sensitive method of detecting DNA breaks in single cells. The cells are embedded in agarose and spread onto microscope slides. After lysis and de-proteinisation, the cells are subjected to alkaline unwinding at high pH (12.5). The DNA becomes relaxed and unwinds at points where DNA single and double strand breaks occur. The cells are then finally subjected to micro-electrophoresis during which relaxed and damaged DNA migrates away from the nucleus resulting in the classic comet shape when visualised under microscopy. This migration of DNA is retarded when the DNA has been subjected to interstrand cross-linking by drugs such as RH1. In the comet-X assay used in this trial, control non-drug treated lymphocytes from the patient's pre-infusion are subjected to gamma radiation to introduce a fixed number of DNA breaks into each cell. This treatment results in a fixed amount of migration under electrophoresis quantified as the percentage (%) of DNA in the tail of the comet image. Patients lymphocytes exposed to RH1 on infusion are collected and irradiated with the same dose of gamma radiation as the control pre-infusion lymphocytes. It was expected that interstrand cross-links produced by RH1 will retard the migration of DNA during electrophoresis resulting in less DNA in the tail of the comet compared to the irradiation only controls. Results are expressed as % DNA cross linked.
To date 12 patients have been treated with RH1 and peripheral blood lymphocytes isolated from pre-infusion and post infusion time points on both day 1 and day 5 of treatment. These lymphocytes have been subjected to the Comet-X assay described above and the amount of DNA present in the tail of the comets following irradiation has been measured. Internal QC samples have been run each time a patients samples have been processed. The data has been pooled into exposure times (short 5-10 minutes, medium 40-120 minutes and long 4-24 hrs exposure) and dose cohorts, (1) 40-135 μg/m^2, (2) 200-326 μg/m^2, (3) 410-810 μg/m^2, and (4) […] ranges for ease of analysis.

[2] = test system: DNA of human lymphocytes (PBLs); test: RH1 drug dosimetry in human lymphocytes in vitro (Comet-X assay); assay type: cell-based
Method: Optimal DNA cross-linking is shown in the range 50 to 100 nM RH1.
as §1, with “It was expected that interstrand cross-links produced by RH1 will retard the migration of DNA during electrophoresis resulting in less DNA in the tail of the comet compared to the irradiation only controls.” left out, “linked. […]” for “linked.”

physchem [3] = details: 25 °C, aqueous buffer
clinical = test: clinical; design: species or system human; details: in vivo; for half-life: iv
Method: RH-1 is activated by NAD(P)H: Quinone acceptor oxidoreductase (NQO1; DT-diaphorase, DTD). DTD is often over-expressed in lung, colon, liver and breast tumours. RH-1 is undergoing Phase I trial at the Christie Hospital, UK. The pharmacokinetic (PK) requirements of this trial required assays that detect nM levels of RH-1 in serum using LC-MS. The extraction and quantitation of RH-1 from human plasma was validated and a limit of detection of 1 ng/ml reached.
(§2) RH1 was administered intravenously on a daily schedule for 5 day periods following a dose escalation scheme. Treatment was repeated on a 21 day cycle. A dose escalation scheme was used to try to establish dose-limiting toxicity. Predicted toxicity includes myelosuppression, emesis, renal toxicity and local injection site irritation. Safety and tolerability were monitored each cycle. Anti-tumour response was assessed after each 2 cycles using RECIST criteria.
Patients lymphocytes exposed to RH1 on infusion were analysed using the comet-X assay, which detects DNA interstrand cross-links.

DT-Diaphorase (DTD) = DT-Diaphorase (DTD) (Homo sapiens, UniProt P15559); test: Suitability as substrate for DTD (activation by DTD); assay type: biochemical
From the text: The results of these tests are set out in Table 2.

physchem [4] = details: buffer, pH 7
solid tumours = test: Phase I clinical trial: safety, tolerability and anti-tumour response; assay type: in vivo, human
From the text: The RH1 trial involved administering RH1 to patients having histologically proven solid tumours that were refractory to conventional treatment or for whom no conventional treatment exists. The WHO performance status of these patients was 0 or 1. WHO performance status is an indicator of a patients overall level of well being/activity. A WHO performance status of 0 means that the patient is fully active, able to carry out all normal activity, without restriction. A WHO performance status of 1 means the patient is restricted in physically strenuous activity but ambulatory and able to carry out work of a light or sedentary nature, e.g. light house work, office work.
as §2

Chain of DT-Diaphorase (DTD) (P15559 whole entry): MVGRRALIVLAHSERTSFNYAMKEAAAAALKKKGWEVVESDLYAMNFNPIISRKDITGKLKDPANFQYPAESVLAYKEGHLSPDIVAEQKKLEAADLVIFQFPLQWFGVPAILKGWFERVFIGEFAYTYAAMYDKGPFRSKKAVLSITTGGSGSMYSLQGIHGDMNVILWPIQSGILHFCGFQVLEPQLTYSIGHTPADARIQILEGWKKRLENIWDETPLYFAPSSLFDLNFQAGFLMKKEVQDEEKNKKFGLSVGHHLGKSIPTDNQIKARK

In the case of `CC1=C(N2CC2)C(=O)C(CO)=C(N2CC2)C1=O` [RH1, 2,5-diaziridinyl-3-hydroxymethyl-6-methyl-1,4-benzoquinone], the “Comet-X result on skin biopsy lesions” value (skin biopsy lesions) is reported as “demonstrate efficacy”, the “cross-linking on day 5 compared with day 1” value ([1]; all patients, statistical analysis) is reported as “significantly more cross-linking” and the “DNA cross linking in PBMCs” value ([1]; by day 5 of the 5 day infusion period) is reported as 30%. The “% DNA in the tail (distribution peak)” value ([1]; day 1, similar to irradiated control) was 70-80%, the “% DNA in the tail (distribution peak)” value ([1]; day 5, PBLC population) was 60-70% and the “degree of cross-linking in PBMCs, highest cohort” value ([1]; highest cohort (1080-1095 mg/m^2), day 5) was 15-20%. For the same compound, the “DNA cross-linking, medium dose cohort” value ([1]; medium dose cohort, day 1 (particularly 4 hr, 24 hr samples) and throughout day 5) was “evidence of DNA cross-linking”, the “DNA cross-linking, low dose cohort” value ([1]; pooled data, low dose cohort, day 1 or day 5) was “no DNA cross-linking” and the “dose response of DNA cross-linking” value ([2]; PBLs treated 5-100 nM RH1, 2 hours, 37° C., concentration increased to 50 nM) was “increase in DNA cross-linking”. The “RH1 concentration range of optimal DNA cross-linking” value ([2]; human lymphocytes, Comet-X, FIG. 1) was 50 to 100 nM, the solubility (physchem [3]) was greater than 500 µg/mL and the Clearance saturability (clinical; human) was “did not appear to be saturable”. The half-life (clinical; human, half-life (clearance from the blood)) was roughly 6 min, the half-life (clinical; human, plasma half-life) was 2 to 12 min and the “relationship between drug dose and area under the curve” value (clinical) was “linear relationship”. The DTD substrate (DT-Diaphorase (DTD)) was “excellent substrate”, the DTD substrate (DT-Diaphorase (DTD); listed as RH-1) was “good substrate” and the half-life (physchem [4]) was greater than 48 h. The “toxicity, patient 5” value (solid tumours; patient 005, 265 μg/m^2/d) was “grade I thrombocytopenia; also recorded: grade I renal impairment”, the “toxicity, patient 007” value (solid tumours; patient 007, dose level 7) was “evidence of toxicity” and the “treatment-related toxicity, first 4 patients” value (solid tumours; patients 001-004, 40-200 μg/m^2/d i.v. daily x5) was “no treatment-related toxicity”.

With `Cn1c(/C=C/CO)c(CO)c2c1C(=O)C=C(N1CC1)C2=O` [E09, 3-HYDROXYMETHYL-5-AZIRIDINYL-1METHYL-2-[1H-INDOLE-4,7-DIONE]-PROPANOL] the DTD substrate (DT-Diaphorase (DTD)) was “Moderate”.

For `O=C1C(NCCO)=C(N2CC2)C(=O)C(NCCO)=C1N1CC1` [BZQ, 3,6-diaziridinyl-2,5-bis-2(-hydroxyethylamino)1,4-benzoquinone], the DTD substrate (DT-Diaphorase (DTD)) was “Poor”.

In the case of `CO[C@@]12[C@H](COC(N)=O)C3=C(C(=O)C(C)=C(N)C3=O)N1C[C@@H]1N[C@@H]12` [Mitomycin C], the DTD substrate (DT-Diaphorase (DTD)) is reported as “Poor” and the DTD substrate (DT-Diaphorase (DTD); listed as mitomycin C) is reported as “relatively poor substrate”.

With `CCOC(=O)NC1=C(N2CC2)C(=O)C(NC(=O)OCC)=C(N2CC2)C1=O` [AZQ, 3,6-diaziridinyl-2,5-bis-(carboethoxyamino)1,4-benzoquinone] the DTD substrate (DT-Diaphorase (DTD)) was “Moderate”.
